Measurements as given in patent US20020016370A1 (priority 1998, published 2002).
Like-named read-outs stand apart in the source and are kept apart here.

Tests used:
[1] = system: mice; details: cited from earlier work
[2] = system: TS patients; details: Tourette's syndrome; cited from earlier work
[3] = system: vagotomized, pithed and artificially respired rats; test: Pithed rat: cardiovascular responses to sympathetic nerve stimulation; type: in vivo; details: for increases in heart rate (δ HR): 2.2 Hz, highest dose, versus saline; for stimulation-induced increases in MAP: stimulation at 0.8 and 2.2 Hz, i.v. bolus
[4] = molecular target: T1, α1β1δε mouse muscle receptors (Mus musculus, UniProt P02716+P04756+P09690+P20782); test: Selectivity test on muscle receptors in oocytes; type: cell-based
T1 sequence (P04756 21-457): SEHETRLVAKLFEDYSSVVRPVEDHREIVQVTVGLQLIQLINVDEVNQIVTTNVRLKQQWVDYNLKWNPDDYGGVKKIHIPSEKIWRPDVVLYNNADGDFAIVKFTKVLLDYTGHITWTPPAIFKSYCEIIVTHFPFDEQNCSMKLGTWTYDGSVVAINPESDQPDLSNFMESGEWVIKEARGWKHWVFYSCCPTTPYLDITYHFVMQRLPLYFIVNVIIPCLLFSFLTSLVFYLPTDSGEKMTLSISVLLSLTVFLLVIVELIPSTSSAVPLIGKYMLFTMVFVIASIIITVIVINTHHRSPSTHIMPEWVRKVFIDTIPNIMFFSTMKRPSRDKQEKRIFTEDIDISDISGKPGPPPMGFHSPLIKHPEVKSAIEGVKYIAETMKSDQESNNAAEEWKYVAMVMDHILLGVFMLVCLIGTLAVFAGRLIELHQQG
T1 sequence (P09690 24-501): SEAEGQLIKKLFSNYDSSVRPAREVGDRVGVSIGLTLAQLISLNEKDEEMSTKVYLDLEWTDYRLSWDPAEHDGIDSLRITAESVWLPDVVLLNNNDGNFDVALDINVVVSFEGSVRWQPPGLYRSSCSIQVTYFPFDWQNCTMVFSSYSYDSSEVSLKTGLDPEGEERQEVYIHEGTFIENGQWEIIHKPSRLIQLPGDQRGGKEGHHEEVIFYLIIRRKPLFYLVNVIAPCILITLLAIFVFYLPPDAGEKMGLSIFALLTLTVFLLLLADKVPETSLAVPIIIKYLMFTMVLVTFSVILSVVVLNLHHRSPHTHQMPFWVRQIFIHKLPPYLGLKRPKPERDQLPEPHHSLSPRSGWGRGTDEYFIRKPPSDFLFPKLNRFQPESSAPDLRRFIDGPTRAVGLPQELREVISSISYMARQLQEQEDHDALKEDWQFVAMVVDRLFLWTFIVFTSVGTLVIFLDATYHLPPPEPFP
T1 sequence (P02716 25-520): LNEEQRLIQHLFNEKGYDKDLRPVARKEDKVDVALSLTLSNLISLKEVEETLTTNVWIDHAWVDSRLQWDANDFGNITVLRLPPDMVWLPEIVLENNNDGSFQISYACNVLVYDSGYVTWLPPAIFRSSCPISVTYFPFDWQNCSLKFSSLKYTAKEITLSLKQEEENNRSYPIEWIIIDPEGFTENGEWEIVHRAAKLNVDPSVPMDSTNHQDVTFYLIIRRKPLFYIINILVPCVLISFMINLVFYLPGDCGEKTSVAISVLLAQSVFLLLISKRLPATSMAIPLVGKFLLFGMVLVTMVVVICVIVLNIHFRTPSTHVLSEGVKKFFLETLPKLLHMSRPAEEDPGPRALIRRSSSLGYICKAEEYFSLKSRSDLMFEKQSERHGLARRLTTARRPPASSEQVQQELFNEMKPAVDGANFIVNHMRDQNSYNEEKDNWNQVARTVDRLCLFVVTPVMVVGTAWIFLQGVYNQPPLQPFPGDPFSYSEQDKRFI
T1 sequence (P20782 21-493): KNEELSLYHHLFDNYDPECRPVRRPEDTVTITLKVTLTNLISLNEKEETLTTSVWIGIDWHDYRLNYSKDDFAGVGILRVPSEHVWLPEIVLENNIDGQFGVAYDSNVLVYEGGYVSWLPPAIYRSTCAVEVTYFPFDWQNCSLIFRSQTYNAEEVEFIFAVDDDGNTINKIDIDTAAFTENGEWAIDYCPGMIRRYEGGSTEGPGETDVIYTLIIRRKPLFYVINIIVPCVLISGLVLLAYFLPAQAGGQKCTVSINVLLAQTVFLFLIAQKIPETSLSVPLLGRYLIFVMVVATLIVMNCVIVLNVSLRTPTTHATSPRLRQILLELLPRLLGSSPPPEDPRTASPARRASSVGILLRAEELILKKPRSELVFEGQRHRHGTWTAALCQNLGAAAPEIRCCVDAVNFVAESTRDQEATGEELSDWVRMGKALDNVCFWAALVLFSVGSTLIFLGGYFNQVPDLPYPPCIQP
Description: For electrophysiology, oocyte recordings were made with an oocyte amplifier (e.g., Warner Instruments, Hamden, Conn., No. OC-725C) and recording chamber. […] A Mariotte flask filled with Ringer's solution was used to maintain a constant hydrostatic pressure for drug delivery and washes. Drugs were diluted in perfusion solution and loaded into a 2 ml loop at the terminus of the perfusion line. A bypass of the drug-loading loop allowed bath solution to flow continuously while the drug loop was loaded. The drug application was synchronized with data acquisition by using a 2-way electronic valve. […] Voltage electrodes were filled with 3M KCl and have resistances of 1-3MΩ. Oocytes with resting membrane potentials more positive than -30 mV were not used. […] All drug applications were separated by at least a 5 min wash period, longer if there is persisting drug effect. At the start of recording, all oocytes received two initial control applications of ACh. The second application of control ACh minimized the effects of rundown that occasionally occur after an initial ACh response. The second application of ACh also was used to normalize for the level of channel expression in each oocyte. To determine residual inhibitory effects, application of ACh with inhibitor or inhibitor alone was followed by another application of ACh alone and compared to the pre-application control ACh response. […]

[5] = system: Male Sprague-Dawley rats; test: Mecamylamine blockade of nicotine-induced seizures; type: in vivo, rat
[6] = molecular target: T2, human α7 receptors (Homo sapiens, UniProt P36544); test: Two-electrode voltage clamp, receptors expressed in Xenopus oocytes; type: cell-based
T2 construct: expressed in transfected cells; host or cells: Xenopus laevis oocytes injected with cRNA
T2 sequence (P36544 23-502): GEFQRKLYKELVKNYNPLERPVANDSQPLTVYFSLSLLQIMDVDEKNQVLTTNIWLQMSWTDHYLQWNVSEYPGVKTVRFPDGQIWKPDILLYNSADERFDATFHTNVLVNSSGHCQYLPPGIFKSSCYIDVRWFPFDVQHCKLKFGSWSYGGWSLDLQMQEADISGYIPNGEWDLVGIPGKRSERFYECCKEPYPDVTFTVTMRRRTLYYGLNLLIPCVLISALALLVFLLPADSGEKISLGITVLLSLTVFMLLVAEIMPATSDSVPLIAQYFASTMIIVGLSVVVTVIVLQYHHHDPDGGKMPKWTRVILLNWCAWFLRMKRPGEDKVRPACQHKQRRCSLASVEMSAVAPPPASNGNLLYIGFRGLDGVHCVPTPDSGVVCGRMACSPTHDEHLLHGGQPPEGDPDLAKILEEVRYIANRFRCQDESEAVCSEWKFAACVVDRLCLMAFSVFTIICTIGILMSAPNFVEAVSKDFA

[7] = molecular target: hDAT (dopamine transporter) (Homo sapiens, UniProt Q01959); test: [125]RTI-55 binding, HEK293 cell membranes; details: HEK-hDAT membranes
[8] = system: male Swiss-Webster mice; test: Locomotor depression test; type: in vivo, mouse
[9] = molecular target: hSERT (serotonin transporter) (Homo sapiens, UniProt P31645); test: [125]RTI-55 binding, HEK293 cell membranes; details: HEK-hSERT membranes
[10] = system: male Swiss-Webster mice; test: Cocaine interaction study (locomotor activity); type: in vivo, mouse; details: 10 mg/kg ip plus cocaine 20 mg/kg, at 30 minutes
[11] = molecular target: T3, human α3β4 receptors (Homo sapiens, UniProt P30926+P32297); test: Two-electrode voltage clamp, receptors expressed in Xenopus oocytes; type: cell-based
T3 construct: expressed in transfected cells; host or cells: Xenopus laevis oocytes injected with cRNA
T3 sequence (P32297 32-505): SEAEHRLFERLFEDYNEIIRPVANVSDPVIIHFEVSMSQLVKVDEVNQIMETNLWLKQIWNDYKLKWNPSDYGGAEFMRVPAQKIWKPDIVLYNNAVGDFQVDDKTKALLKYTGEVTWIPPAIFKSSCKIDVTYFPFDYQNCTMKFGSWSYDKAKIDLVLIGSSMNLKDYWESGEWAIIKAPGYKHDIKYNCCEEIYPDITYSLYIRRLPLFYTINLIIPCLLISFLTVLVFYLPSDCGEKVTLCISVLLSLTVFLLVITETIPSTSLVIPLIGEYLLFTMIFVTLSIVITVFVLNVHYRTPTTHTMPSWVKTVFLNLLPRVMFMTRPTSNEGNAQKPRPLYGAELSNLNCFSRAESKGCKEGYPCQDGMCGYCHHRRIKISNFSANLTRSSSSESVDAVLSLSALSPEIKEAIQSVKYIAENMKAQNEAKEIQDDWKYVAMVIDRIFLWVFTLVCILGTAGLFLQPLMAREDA
T3 sequence (P30926 22-498): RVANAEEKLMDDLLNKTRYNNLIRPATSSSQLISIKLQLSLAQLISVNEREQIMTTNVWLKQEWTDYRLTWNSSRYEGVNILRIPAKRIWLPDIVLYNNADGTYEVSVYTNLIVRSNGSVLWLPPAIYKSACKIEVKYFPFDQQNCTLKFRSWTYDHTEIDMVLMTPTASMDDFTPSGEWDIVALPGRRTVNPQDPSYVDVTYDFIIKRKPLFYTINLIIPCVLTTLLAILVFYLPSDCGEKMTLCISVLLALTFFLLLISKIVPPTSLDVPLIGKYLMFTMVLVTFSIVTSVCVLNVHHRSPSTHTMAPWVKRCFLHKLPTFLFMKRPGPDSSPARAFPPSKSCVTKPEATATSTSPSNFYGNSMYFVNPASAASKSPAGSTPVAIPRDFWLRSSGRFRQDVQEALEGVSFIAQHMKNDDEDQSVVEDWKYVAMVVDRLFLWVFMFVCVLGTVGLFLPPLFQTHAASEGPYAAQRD

[12] = molecular target: hNET (norepinephrine transporter) (Homo sapiens, UniProt P23975); test: [125]RTI-55 binding, HEK293 cell membranes; details: HEK-hNET membranes
[13] = system: vagotomized, pithed and artificially respired rats; test: Pithed rat: plasma catecholamine responses to sympathetic nerve stimulation; type: in vivo; details: for change of plasma DA levels on sympathetic stimulation: from baseline
[14] = molecular target: T4, human α4β2 receptors (Homo sapiens, UniProt P17787+P43681); test: Two-electrode voltage clamp, receptors expressed in Xenopus oocytes; type: cell-based
T4 construct: expressed in transfected cells; host or cells: Xenopus laevis oocytes injected with cRNA

[15] = system: Sprague-Dawley derived rats; test: Prevention of sensitized locomotor stimulant response to nicotine; type: in vivo, rat; details: pretreatment 7 days before nicotine; test on day 9
[16] = molecular target: T5, human α3β2 receptors (Homo sapiens, UniProt P17787+P32297); test: Two-electrode voltage clamp, receptors expressed in Xenopus oocytes; type: cell-based; details: β2-containing receptors
T5 construct: expressed in transfected cells; host or cells: Xenopus laevis oocytes injected with cRNA

[17] = system: nicotine receptors; test: Oocyte recovery time course and agonist tests, receptor subtype not specified; type: cell-based
[18] = molecular target: T6, NMDA receptor subunits NR1 and NR2b (Homo sapiens, UniProt Q05586+Q13224); test: Oocytes coexpressing NMDA receptor subunits; type: cell-based; details: 100 μM
T6 construct: expressed in transfected cells; host or cells: Xenopus oocytes
T6 sequence (Q13224 27-1484, other chains not shown): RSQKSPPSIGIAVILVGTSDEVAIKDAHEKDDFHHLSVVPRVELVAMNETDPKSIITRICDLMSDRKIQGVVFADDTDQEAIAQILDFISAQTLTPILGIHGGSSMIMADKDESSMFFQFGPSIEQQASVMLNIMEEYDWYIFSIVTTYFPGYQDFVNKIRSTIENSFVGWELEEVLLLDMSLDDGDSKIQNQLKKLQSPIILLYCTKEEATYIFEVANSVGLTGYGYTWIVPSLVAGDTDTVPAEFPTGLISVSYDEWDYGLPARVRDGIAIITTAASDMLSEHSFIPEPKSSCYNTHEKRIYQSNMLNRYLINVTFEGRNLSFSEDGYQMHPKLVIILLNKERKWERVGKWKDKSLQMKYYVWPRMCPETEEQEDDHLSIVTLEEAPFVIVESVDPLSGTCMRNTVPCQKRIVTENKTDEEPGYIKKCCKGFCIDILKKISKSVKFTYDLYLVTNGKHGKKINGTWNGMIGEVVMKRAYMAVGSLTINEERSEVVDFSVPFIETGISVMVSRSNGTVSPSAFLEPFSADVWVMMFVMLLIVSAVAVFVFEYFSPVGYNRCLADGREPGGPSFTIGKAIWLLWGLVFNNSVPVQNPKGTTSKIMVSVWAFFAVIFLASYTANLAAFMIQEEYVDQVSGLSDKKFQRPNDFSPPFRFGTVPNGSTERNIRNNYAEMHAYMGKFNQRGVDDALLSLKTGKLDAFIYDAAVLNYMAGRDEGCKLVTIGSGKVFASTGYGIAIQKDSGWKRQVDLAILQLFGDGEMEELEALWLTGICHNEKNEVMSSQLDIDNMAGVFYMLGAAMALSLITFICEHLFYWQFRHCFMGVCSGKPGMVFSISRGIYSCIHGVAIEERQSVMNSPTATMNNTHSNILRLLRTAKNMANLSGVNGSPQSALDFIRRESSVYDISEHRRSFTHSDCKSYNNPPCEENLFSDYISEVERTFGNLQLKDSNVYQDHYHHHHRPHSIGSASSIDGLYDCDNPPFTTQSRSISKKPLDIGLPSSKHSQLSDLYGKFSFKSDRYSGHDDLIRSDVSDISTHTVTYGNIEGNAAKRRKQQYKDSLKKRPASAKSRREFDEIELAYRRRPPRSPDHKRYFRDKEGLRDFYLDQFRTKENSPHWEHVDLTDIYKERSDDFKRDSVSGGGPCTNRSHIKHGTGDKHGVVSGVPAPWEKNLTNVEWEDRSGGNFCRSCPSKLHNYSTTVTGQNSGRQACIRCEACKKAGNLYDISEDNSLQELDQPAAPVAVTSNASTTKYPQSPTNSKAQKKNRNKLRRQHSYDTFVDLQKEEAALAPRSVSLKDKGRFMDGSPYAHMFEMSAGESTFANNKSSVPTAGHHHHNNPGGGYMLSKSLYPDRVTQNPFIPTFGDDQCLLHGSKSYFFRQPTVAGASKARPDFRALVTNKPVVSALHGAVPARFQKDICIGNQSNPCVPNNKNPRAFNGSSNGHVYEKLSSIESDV
Text: NR1 is ubiquitous in the brain and produces robust functional responses when coexpressed with the NR2b subunit and activated by glutamate and the coagonist glycine. NR2b in vivo is selectively present in the forebrain with high levels of expression in the cerebral cortex and hippocampus, as well as the septum, caudate putamen and olfactory bulb, making the combination of NR2b and NR1 relevant for both cognitive and motor functions in the CNS.

[19] = molecular target: T1, α1β1δε mouse muscle receptors; details: stated as a finding in the discussion; cited from earlier work
[20] = system: Male Sprague-Dawley rats; test: Effects of mecamylamine alone at high dose (seizures, spontaneous locomotor activity); type: in vivo, rat; details: 10 mg/kg s.c.
[21] = system: rats; details: mecamylamine 0.1-1 mg/day, ip; cited from earlier work

CN1[C@@H]2CC[C@H]1C[C@@H](OC(=O)C(CO)c1ccccc1)C2 (some centres unmarked) [atropine]
effect against psychostimulant-induced stereotypy in naive animals ([1]; mouse, in vivo): ineffective

Clc1cccc(Cl)c1N=C1NCCN1 [clonidine]
success rate for motor and vocal tics [2]: 40%

CO[C@H]1CC=C2CCN3CCC4=C(CC(=O)OC4)[C@]23C1 [dihydro-beta-erythroidine]
effect against psychostimulant-induced stereotypy in naive animals ([1]; systemic administration): ineffective

CN[C@]1(C)[C@H]2CC[C@H](C2)C1(C)C [exo-R-mecamylamine]
increases in heart rate (δ HR) [3]: significantly lowered the increases in heart rate
stimulation-induced increases in MAP [3]: completely abolished
effect on muscle receptors [4]: very little effect
inhibition of muscle receptors after a 5-min wash [4]: fully reversed
duration and severity of seizure versus saline (FIG. 6C) ([5]; 0.1 mg/kg s.c.): did not differ from their saline comparison group
potency of inhibition, comparing the IC50 values across receptors [6]: least potent
residual inhibition, compared across receptors [6]: least
affinity compared to cocaine [7]: lower than the affinity of cocaine
stimulant effects ([8]; 10 mg/kg ip, last 30 minutes of testing): evident
dose producing one half of the maximal depressant activity ([8]; ip, 20 min before testing, maximal depression is 0 counts in 30 minutes): 9.3 mg/kg
affinity compared to cocaine [9]: lower than the affinity of cocaine
locomotion versus cocaine alone [10]: significantly lower
subsequent control response to ACh 5 min after exposure (residual inhibition) [11]: marked decrease
fast phase of recovery, average duration ([11]; no further recovery afterwards): 12 min
affinity compared to cocaine [12]: lower than the affinity of cocaine
stimulation-induced increases in plasma NE levels versus saline ([13]; 2.2 Hz): significantly less
change of plasma DA levels on sympathetic stimulation ([13]; 2.2 Hz): significant increases in plasma DA levels
voltage dependence of inhibition / off rate ([14]; 5 μM, −40 mV or 90 mV): significant voltage effects
residual inhibition, compared across receptors ([14]; β2-containing receptors): greatest
effectiveness compared between isomers, particularly center distance and vertical activity [15]: generally more effective at lower doses
residual inhibition, compared across receptors [16]: greatest

CN[C@@]1(C)[C@@H]2CC[C@@H](C2)C1(C)C [exo-S-mecamylamine]
increases in heart rate (δ HR) [3]: significantly lowered the increases in heart rate
stimulation-induced increases in MAP [3]: completely abolished
initial inhibition ([17]; co-application of 10 μM and ACh at the control concentration): greater than 50%
off-loading from some receptors compared to exo-R-mecamylamine ([17]; recovery time course): more slowly
inhibition of response to 10 μM glutamate+10 μM glycine [18]: transient inhibition
reversibility after a 5-min wash [18]: reversible
duration and severity of seizure versus saline (FIG. 6C) ([5]; 0.1 mg/kg s.c.): significantly different from their saline comparison groups
seizure latency versus saline comparison groups ([5]; 0.1 mg/kg s.c.): significantly longer seizure latency
number of rats with nicotine-seizures compared to exo-R-mecamylamine ([5]; lowest dose 0.1 mg/kg): fewer rats had nicotine-seizures
inhibitory effect at nAChR muscle receptors compared to exo-R-mecamylamine [19]: less inhibitory effect
stimulation-induced increases in plasma NE levels versus saline ([13]; 2.2 Hz): significantly decreased stimulation-evoked plasma NE increases
stimulation-induced plasma EPI responses ([13]; 2.2 Hz): significant decrease
change of plasma DA levels on sympathetic stimulation ([13]; 2.2 Hz): not
overall effectiveness on plasma CA and sympathetically-mediated cardiovascular responses ([13]; among the three forms): the most effective in reducing plasma CA
locomotor depressant effects compared to exo-R-mecamylamine [20]: significantly less locomotor depressant effects

O=C(CCCN1CCC(O)(c2ccc(Cl)cc2)CC1)c1ccc(F)cc1 [haloperidol]
cases in which effective [2]: about 70%

C[N+](C)(C)CCCCCC[N+](C)(C)C [hexamethonium]
block of nicotine-induced locomotor hyperactivity and tail tremor [21]: not
